Where two headings read alike, the source gives them in different places.
Assays:
[1] = set-up: method as in EMBL-EBI database; settings: ref EMBL-EBI database, cited from earlier work; for HBA: hydrogen-bond acceptor; for HBD: hydrogen-bond donor
p-glycoprotein = tested on: p-glycoprotein; set-up: method as in El-Kattan et al. [36] and DrugBank; settings: With / Without; ref El-Kattan et al. [36] and DrugBank; cited from earlier work
[2] = tested on: organic anion-transporting polypeptide; set-up: method as in El-Kattan et al. [36] and DrugBank; settings: With / Without; ref El-Kattan et al. [36] and DrugBank; cited from earlier work
[3] = set-up: method as in PMID 35901930; settings: fraction unbound in plasma; regression dataset; cited from earlier work
[4] = tested on: isolated perfused rat liver; assay: Fitting of hepatic clearance models (MWSM, WSM, PTM, DM) to IPRL FH vs fu data
Procedure: (§1) Under this condition, hepatic availability (FH) served as a clear and practical indicator of CLH. […] Based on the principles of the WSM, Equations (3) and (4) were derived by applying Equations (1) and (2), in conjunction with the concept that CLH equals the liver blood flow multiplied by the extraction ratio. Subsequently, data fitting was performed using these formulas.
(§2) Rosuvastatin consistently aligned with the MWSM predictions throughout the experiment.
(§3) The extraction recovery, calibration curves and retention time of each compound are shown in Table S1, Figures S1 and S2, respectively. All available experimental data were included in the analysis. The formula and experimental data were processed by Prism software v10.4.1 (GraphPad Software, Inc) to generate figures and calculate the degree of fit of different models.

[5] = as above; settings: male, Sprague-Dawley, rat, isolated perfused rat liver
Procedure: as §1, §2, §3

human serum albumin = human serum albumin (Homo sapiens, UniProt P02768); assay: Rapid equilibrium dialysis (RED), fraction unbound at various HSA concentrations; type: in vitro ADME; settings: drug 1 μg/mL in Krebs buffer, 37 °C, read-out: fraction unbound (fu)
Procedure: The rapid equilibrium dialysis (RED) apparatus and test inserts were purchased from Thermo Fisher Scientific (Rockford, IL, USA). The unbound fraction of each assessed drug was determined using RED. Briefly, a drug was diluted to 1 μg/mL in Krebs buffer containing different concentrations of HSA. Five hundred microliters of the assessed drug and each of the different HSA concentrations were added to the sample chamber of an insert and 750 μL of blank buffer was added to the adjacent chamber. The loaded inserts were then assembled on a Teflon-based plate.

[6] = Krebs buffer with 0% HSA, 0% HSA
[7] = Krebs buffer with 0.1% HSA, 0.1% HSA
[8] = Krebs buffer with 2% HSA, 2% HSA
[9] = Krebs buffer with […] HSA, 0.25% HSA

Sequence of human serum albumin (P02768 25-609): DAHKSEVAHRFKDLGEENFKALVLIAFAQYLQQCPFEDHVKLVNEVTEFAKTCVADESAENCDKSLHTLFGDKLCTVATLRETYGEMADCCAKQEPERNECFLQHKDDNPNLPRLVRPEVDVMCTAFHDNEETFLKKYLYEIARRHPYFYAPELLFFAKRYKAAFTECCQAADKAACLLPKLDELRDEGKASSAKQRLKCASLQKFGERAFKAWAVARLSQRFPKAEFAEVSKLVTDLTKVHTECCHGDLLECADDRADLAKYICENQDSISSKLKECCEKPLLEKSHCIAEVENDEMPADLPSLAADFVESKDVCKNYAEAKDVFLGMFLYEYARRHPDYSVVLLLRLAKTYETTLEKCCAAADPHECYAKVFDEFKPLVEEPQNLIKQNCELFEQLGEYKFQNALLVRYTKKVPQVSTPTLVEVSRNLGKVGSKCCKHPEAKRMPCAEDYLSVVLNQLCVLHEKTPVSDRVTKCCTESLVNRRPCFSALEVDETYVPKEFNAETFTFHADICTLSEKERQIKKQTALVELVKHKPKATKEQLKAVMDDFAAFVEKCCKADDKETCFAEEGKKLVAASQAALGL

**Q.** Which results are given for CN1C(=O)CN=C(c2ccccc2)c2cc(Cl)ccc21 [Diazepam]?
**A.** Aromatic Rings [1]: 2; Heavy Atoms [1]: 20

**Q.** For O=C(O)Cc1ccccc1Nc1c(Cl)cccc1Cl [Diclofenac], which P-gp (p-glycoprotein) is on record?
**A.** Without

**Q.** And the OATP [2]?
**A.** Without

**Q.** And the HBA [1]?
**A.** 3

**Q.** What about the HBD [1] of the same molecule?
**A.** 2

**Q.** What about the “Aromatic Rings” value [1] of the same molecule?
**A.** 2

**Q.** What about the “Heavy Atoms” value [1] of the same molecule?
**A.** 19

**Q.** What about the fu p [3] of the same molecule?
**A.** 0.004

**Q.** What about the “Optimal Model” value ([4]; HSA interval 0–0.01%) of the same molecule?
**A.** MWSM

**Q.** What about the “sum of squares, DM” value ([4]; HSA interval 0–0.01%) of the same molecule?
**A.** 0.0792

**Q.** And the “sum of squares, Modified WSM” value ([4]; HSA interval 0–0.01%)?
**A.** 0.0278

**Q.** And the “sum of squares, PTM” value ([4]; HSA interval 0–0.01%)?
**A.** 0.0702

**Q.** And the “sum of squares, WSM” value ([4]; HSA interval 0–0.01%)?
**A.** 0.0885

**Q.** What about the “Optimal Model” value ([4]; HSA interval 0.025–2%) of the same molecule?
**A.** WSM

**Q.** What about the “sum of squares, DM” value ([4]; HSA interval 0.025–2%) of the same molecule?
**A.** 0.1400

**Q.** What about the “sum of squares, Modified WSM” value ([4]; HSA interval 0.025–2%) of the same molecule?
**A.** 0.2923

**Q.** What about the “sum of squares, PTM” value ([4]; HSA interval 0.025–2%) of the same molecule?
**A.** 0.1790

**Q.** And the “sum of squares, WSM” value ([4]; HSA interval 0.025–2%)?
**A.** 0.1194

**Q.** What about the “CLint, DM” value ([4]; male, Sprague-Dawley, rat) of the same molecule?
**A.** 35.94

**Q.** And the “CLint, PTM” value ([4]; male, Sprague-Dawley, rat)?
**A.** 27.63

**Q.** And the “CLint, WSM” value ([4]; male, Sprague-Dawley, rat)?
**A.** 43.68

**Q.** What about the fraction unbound [5] of the same molecule?
**A.** 0.576 to 0.872

**Q.** For CC(C)c1nc(N(C)S(C)(=O)=O)nc(-c2ccc(F)cc2)c1/C=C/[C@@H](O)C[C@@H](O)CC(=O)O [Rosuvastatin], which P-gp (p-glycoprotein) is on record?
**A.** Without

**Q.** And the OATP [2]?
**A.** With

**Q.** What about the HBA [1] of the same molecule?
**A.** 9

**Q.** And the HBD [1]?
**A.** 3

**Q.** And the PSA ([1]; polar surface area, in Å2 (unit assumed))?
**A.** 140.9

**Q.** What about the “Aromatic Rings” value [1] of the same molecule?
**A.** 2

**Q.** And the “Heavy Atoms” value [1]?
**A.** 33

**Q.** And the fraction unbound at 8 h, 1 μg/mL (human serum albumin; [6])?
**A.** 0.99

**Q.** And the fraction unbound at 8 h, 1 μg/mL (human serum albumin; [7])?
**A.** 0.9

**Q.** What about the fraction unbound at 8 h, 1 μg/mL (human serum albumin; Krebs buffer with 0.375% HSA, 0.375% HSA) of the same molecule?
**A.** 0.65

**Q.** What about the fraction unbound at 8 h, 1 μg/mL (human serum albumin; Krebs buffer with 0.5% HSA, 0.5% HSA) of the same molecule?
**A.** 0.51

**Q.** What about the fraction unbound at 8 h, 1 μg/mL (human serum albumin; Krebs buffer with 1% HSA, 1% HSA) of the same molecule?
**A.** 0.42

**Q.** What about the fraction unbound at 8 h, 1 μg/mL (human serum albumin; [8]) of the same molecule?
**A.** 0.29

**Q.** And the fraction unbound at 8 h, 1 μg/mL (human serum albumin; [9])?
**A.** 0.77

**Q.** And the fu p [3]?
**A.** 0.129

**Q.** And the “Optimal Model” value ([4]; HSA interval 0–2%)?
**A.** MWSM

**Q.** What about the “sum of squares, DM” value ([4]; HSA interval 0–2%) of the same molecule?
**A.** 1.4550

**Q.** What about the “sum of squares, Modified WSM” value ([4]; HSA interval 0–2%) of the same molecule?
**A.** 0.2132

**Q.** What about the “sum of squares, PTM” value ([4]; HSA interval 0–2%) of the same molecule?
**A.** 1.0670

**Q.** What about the “sum of squares, WSM” value ([4]; HSA interval 0–2%) of the same molecule?
**A.** 1.8440

**Q.** For CNCCC(Oc1ccc(C(F)(F)F)cc1)c1ccccc1 (centres unmarked) [Fluoxetine], which fraction unbound at 8 h, 1 μg/mL (human serum albumin; [6]) is on record?
**A.** 0.99

**Q.** And the fraction unbound at 8 h, 1 μg/mL (human serum albumin; [7])?
**A.** 0.45

**Q.** And the fraction unbound at 8 h, 1 μg/mL (human serum albumin; [8])?
**A.** 0.05

**Q.** And the fraction unbound at 8 h, 1 μg/mL (human serum albumin; Krebs buffer with […] HSA, 0.025% HSA)?
**A.** 0.87

**Q.** What about the fraction unbound at 8 h, 1 μg/mL (human serum albumin; [9]) of the same molecule?
**A.** 0.4

**Q.** And the “Optimal Model” value ([4]; HSA interval 0–2%)?
**A.** WSM

**Q.** What about the “sum of squares, DM” value ([4]; HSA interval 0–2%) of the same molecule?
**A.** 0.2062

**Q.** What about the “sum of squares, Modified WSM” value ([4]; HSA interval 0–2%) of the same molecule?
**A.** 5.9630

**Q.** And the “sum of squares, PTM” value ([4]; HSA interval 0–2%)?
**A.** 0.2096

**Q.** And the “sum of squares, WSM” value ([4]; HSA interval 0–2%)?
**A.** 0.1154
